Measured values from PubChem BioAssay AID1996.
≈ marks a conversion by molar mass, not a printed value.

Conditions: buffer; pH 7.4; 200.0 µM

Row | SMILES | solubility kinetic
1 | O=C(Nc1ccc(F)cc1)c1nc[nH]c1C(=O)O | > 37.4 µg/mL
2 | Cc1onc(NC(=O)NC(=O)c2c(F)cccc2Cl)c1Br | 8.1 µg/mL (≈ 21.5 µM)
3 | CC1C(=O)N2CCCc3cc(NC(=O)COc4ccccc4)cc1c32 (stereo unspecified) | 50.2 µg/mL (≈ 149 µM)
4 | Cc1ccc(NC(=O)Nc2ccc3c(c2)OCO3)cc1F | < 0.3 µg/mL
5 | O=C1NC(=S)N(C(=O)c2ccc(F)cc2)/C1=C/c1cccnc1 | 2 µg/mL (≈ 6.11 µM)
6 | O=C(COc1ccc(-c2nnco2)cc1)N1CCOCC1 | > 43.4 µg/mL
7 | O=c1[nH]cnc2ccc([N+](=O)[O-])cc12 | > 28.7 µg/mL
8 | CC(OC(=O)C1CC2CCCC(C1)C2=O)C(=O)Nc1cccc([N+](=O)[O-])c1 (stereo unspecified) | > 56.2 µg/mL
9 | O=C(/C=C/c1ccccc1)Oc1ccccc1C(=S)N1CCOCC1 | 18.9 µg/mL (≈ 53.5 µM)
10 | Br.CCc1ccc(C2=CSC3=NCCN23)cc1 | > 46.7 µg/mL
11 | COC(=O)c1c(C)oc(C)c1S(=O)(=O)NCc1cccs1 | 43.4 µg/mL (≈ 132 µM)
12 | COc1ncnc2c1oc1nc(C)c3c(c12)CC(C)(C)OC3 | 4.9 µg/mL (≈ 16.4 µM)
13 | COC(=O)c1ccc(Nc2ncnc3sccc23)cc1 | 1.8 µg/mL (≈ 6.31 µM)
14 | Cc1nc(NC(=O)/C=C/c2ccccc2)sc1C(=O)NCCO | 12.9 µg/mL (≈ 38.9 µM)
15 | COc1ccc(NC(=O)COC(C)=O)cc1OC | > 38 µg/mL
16 | CCc1nc2sc(C(=O)O)c(N)c2c2c1CCCC2 | > 41.5 µg/mL
17 | COc1ccc(C(=O)OCC(=O)NCCc2ccc(F)cc2)cc1S(=O)(=O)N1CCOCC1 | > 72.1 µg/mL
18 | COCC(=O)Nc1ccc(S(=O)(=O)NCC2CCCO2)cc1 (stereo unspecified) | > 49.3 µg/mL
19 | O=C(Nc1csc([N+](=O)[O-])c1)Nc1c(Cl)cccc1Cl | 1.9 µg/mL (≈ 5.72 µM)
20 | COC(=O)c1ccc(NC(=O)COc2ccc([N+](=O)[O-])cc2)cc1 | 0.4 µg/mL (≈ 1.21 µM)
21 | O=C(CNC(=O)c1ccccc1F)NC1=NCCS1 | > 42.2 µg/mL

Row | SMILES | solubility kinetic
22 | CC(=O)c1cc(C(C)=O)c(C)nc1C | > 28.7 µg/mL
23 | COc1ccc(S(=O)(=O)N2CCCC2)c2ccccc12 | 0.9 µg/mL (≈ 3.09 µM)
24 | CCCCCOc1ccc(C(=O)CCN2CCOCC2)cc1.Cl | 34.9 µg/mL
25 | Cc1ccc2cccc(OCc3ccccc3)c2n1 | 20.8 µg/mL (≈ 83.4 µM)
26 | COc1cccc(C(=O)NCCCn2ccnc2)c1 | > 38.9 µg/mL
27 | Cc1ccc(NS(=O)(=O)c2ccc3[nH]c(=O)[nH]c3c2)c(C)c1 | 5 µg/mL (≈ 15.8 µM)
28 | O=C(Nc1cccc(O)c1)c1ccc(S(=O)(=O)N2CCCCCC2)cc1 | 3.7 µg/mL (≈ 9.88 µM)
29 | O=C(COc1ncnc2ccccc12)Nc1cccc([N+](=O)[O-])c1 | 15.1 µg/mL (≈ 46.6 µM)
30 | CCCCCCC(=O)Nc1ccc(S(=O)(=O)Nc2onc(C)c2C)cc1 | > 56.9 µg/mL
31 | Cc1ccc(OCc2cnc(Cl)s2)c(C)c1 | < 0.5 µg/mL
32 | O=C(NCc1ccccc1F)C12CC3CC(CC(C3)C1)C2 | 1 µg/mL (≈ 3.48 µM)
33 | Cc1nc(Cl)sc1C(=O)Nc1ccccc1Cl | 21.7 µg/mL (≈ 75.6 µM)
34 | O=C(c1ccc(Cl)cc1)N1CCn2c1nc1ccccc12 | 1.1 µg/mL (≈ 3.69 µM)
35 | COc1ccccc1C(=O)COC(=O)c1ccc(Cl)nc1 | 44.6 µg/mL (≈ 146 µM)
36 | O=C1CC(/C=C/c2ccccc2)=Nc2ccccc2N1 | 2.1 µg/mL (≈ 8.01 µM)
37 | Cc1c(-c2csc(N)n2)c2ccccc2n1C | 30.4 µg/mL (≈ 125 µM)
38 | ONC(=Nc1cccc(C(F)(F)F)c1)c1cccnc1 | > 42.2 µg/mL
39 | Cc1ccc(S(=O)(=O)CCC(=O)N2CCN(c3ccccc3O)CC2)cc1 | 35.9 µg/mL (≈ 92.4 µM)
40 | CC(C)N(Cc1ccccc1)C(=S)Nc1cccnc1 | > 42.8 µg/mL
41 | Cc1ccc(NCc2ccc(O)c3ncccc23)cc1 | 5 µg/mL (≈ 18.9 µM)
42 | Cc1cc(C(=O)CCl)c(C)n1Cc1ccco1 | > 37.8 µg/mL

Row | SMILES | solubility kinetic
43 | CC(Oc1ccccc1)C(=O)NC1CCSc2ccccc21 (stereo unspecified) | 25.9 µg/mL (≈ 82.6 µM)
44 | Cc1nc2cc(NC(=O)NCCCO)ccc2o1 | > 37.4 µg/mL
45 | CCCCNCc1cc2ccccc2o1.Cl | 31.7 µg/mL
46 | CCc1ccc(CN(C)C(=O)c2ccc3c(c2)OCCO3)cc1 | > 46.7 µg/mL
47 | COc1ccsc1NC(=O)OCc1ccc(Cl)cc1 | 19.3 µg/mL (≈ 64.8 µM)
48 | O=S(=O)(O)c1cccnc1SCc1ccccc1 | 41 µg/mL (≈ 146 µM)
49 | CCOc1ccccc1NC(=O)C(=O)CC(=O)c1cccc(OC)c1 | 9.6 µg/mL (≈ 28.1 µM)
50 | N#CCC(=O)Nc1ccc(C(=O)NCc2ccccn2)cc1 | > 44.1 µg/mL
51 | CCCNC(=O)CCn1c(=S)oc2ccccc21 | > 39.7 µg/mL
52 | CCCC(=O)Nc1ccc(C(=O)COC(=O)C2CC2C)cc1 (stereo unspecified) | 14 µg/mL (≈ 46.2 µM)
53 | COc1nc(Nc2ccccc2)nc(OC)n1 | > 34.8 µg/mL
54 | FC(F)(F)c1cccc(N2CCN(C3CC4CCC3C4)CC2)c1 (stereo unspecified) | 1.4 µg/mL (≈ 4.32 µM)
55 | COc1cc2c(cc1OC)C(C)N(S(=O)(=O)c1ccc(C)cc1)CC2 (stereo unspecified) | 26.8 µg/mL (≈ 74.1 µM)
56 | O=C(c1cc2cc(Cl)ccc2o1)N1CCCC1 | 29.6 µg/mL (≈ 119 µM)
57 | CCOc1ccc(NC(=S)NC(=O)c2cccnc2)c([N+](=O)[O-])c1 | 4.3 µg/mL (≈ 12.4 µM)
58 | CC1CCCCC1NC(=O)COC(=O)c1cccn1C (stereo unspecified) | > 41.8 µg/mL
59 | CSc1ccccc1NC(=O)COc1ccc2c(c1)OCO2 | 41.4 µg/mL (≈ 130 µM)
60 | O=C(Nc1ccc(Cl)cc1)C1C2CCCCC21 (stereo unspecified) | < 0.5 µg/mL
61 | COc1ccccc1NS(=O)(=O)c1cc(NC(=O)c2cc(F)c(F)c(F)c2F)ccc1N1CCOCC1 | 3.6 µg/mL (≈ 6.67 µM)
